Test results: US20230364032A1, “USE OF 2-HOBA TO TREAT ATHEROSCLEROSIS” (Vanderbilt University, priority 2020, published 2023)
Where “and” joins values, the source holds several entries; their conditions need not be identical. Equal values may be shown once. Entries after “also recorded” stand apart in the source; their conditions may differ.

Legend:
[1] = tested on: atherosclerotic lesions of Ldlr−/− mice; assay: Lesion apoptosis (TUNEL) and efferocytosis; assay type: in vivo, mouse
Procedure: Cell apoptosis was induced as indicated and detected by fluorescent labeled Annexin V staining and quantitated by either Flow Cytometry (BD 5 LSRII) or counting Annexin V positive cells in images captured under a fluorescent microscope. The apoptotic cells in atherosclerotic lesions were measured by TUNEL staining of cross-sections of atherosclerotic proximal aortas as previously described^30. The TUNEL positive cells not associated with live macrophages were considered free apoptotic cells and macrophage-associated apoptotic cells were considered phagocytosed as a measure of lesion efferocytosis as previously described^30.

[2] = tested on: IL-1β, IL-6, TNF-α, SAA; assay: Plasma/serum inflammatory cytokines by ELISA; assay type: in vivo, mouse
Procedure: The inflammatory cytokines including IL-1β (5A), IL-6 (5B), TNF-α (5C) and SAA (5D) were measured by ELISA in plasma from mice consuming a western diet for 16 weeks and treated with 2-HOBA, 4-HOBA, or vehicle. N=8 per group.*p<0.05, **p<0.01. ***p<0.001. One-way ANOVA with Bonferroni's post hoc test.
Serum IL-1β, IL-6 and TNF-α levels were measured by ELISA (R&D System). N=7 or 8 mice per group, N.S., One-way ANOVA with Bonferroni's post hoc test.

[3] = tested on: MDA-LDL; assay: MDA adducts in isolated LDL by ELISA; assay type: in vivo, mouse; details: Ldlr−/− mice
Procedure: (§1) FIG. 21A-D show the effects of 2-HOBA on plasma and LDL MDA adducts in hypercholesterolemic Ldlr^−/− mice. (20A) The MDA content in plasma from Ldlr^−/− mice consuming a Western diet for 16 weeks and treated with 2-HOBA, 4-HOBA, or vehicle was measured by TBARS Assay(*p<0.05, **p<0.01). (20B) The levels of MDA adducts were measured from LDL isolated from the Ldlr^−/− mice by ELISA. N=10 per group, ***p<0.001. (20C) LDL was isolated from control and FH subjects (n=6) pre and post LDL apheresis and the MDA adduct content was measured by ELISA. (20D) LDL was isolated from 2-HOBA, 4-HOBA, or vehicle treated hypercholesterolemic Ldlr^−/− mice. WT peritoneal macrophages were incubated for 24 hrs with the LDL and the cellular cholesterol content was measured as described in methods. (20A-D) One-way ANOVA with Bonferroni's post hoc test).
The study was approved by the Vanderbilt University Institutional Review Board (IRB), and all participants gave their written informed consent. The human blood samples from patients with severe FH, who were undergoing LDL apheresis, and healthy controls were obtained using an IRB approved protocol. HDL and LDL were prepared from serum by Lipoprotein Purification Kits (Cell BioLabs, Inc.). Sandwich ELISA was used to measure plasma MDA-LDL and MDA-HDL levels following the manufacturer's instructions (Cell BioLabs, Inc.). Briefly, isolated LDL or HDL samples and MDA-Lipoprotein standards were added onto anti-MDA coated plates, and, after blocking, the samples were incubated with biotinylated anti-apoB or anti-ApoAI primary antibody. The samples were then incubated for 1 h with streptavidin-enzyme conjugate and 15 min with substrate solution. After stopping the reaction, the O.D. was measured at 450 nm wavelength. MDA-ApoAI was detected in mouse plasma by immunoprecipitation of ApoAI and western blotting. […] Proteins were visualized and quantitated by Odyssey 3.0 Quantification software (LI-COR).

[4] = tested on: WT peritoneal macrophages; assay: Cholesterol enrichment of macrophages by LDL from treated mice; assay type: cell-based, mouse; details: LDL from 2-HOBA versus 4-HOBA or vehicle treated Ldlr−/− mice, 24 hrs
Procedure: as §1
MDA was prepared immediately before use by rapid acid hydrolysis of maloncarbonyl bis-(dimethylacetal) as described^31. Briefly, 20 μL of 1 M HCl was added to 200 μL of maloncarbonyl bis-(dimethylacetal), and the mixture was incubated for 45 min at room temperature. The MDA concentration was determined by absorbance at 245 nm, using the coefficient factor 13, 700 M^−1 cm^−1. […] The LDL samples were incubated for 24 h with macrophages and the cholesterol content of the cells was measured using an enzymatic cholesterol assay as described^61.

[5] = biological target: anti-MDA antibody / MDA-BSA (Bos taurus, UniProt P02769); assay: Anti-MDA antibody interaction with MDA-BSA (dot blot); details: MDA-BSA incubated with 1× or 5× 2-HOBA
Procedure: A series of doses of MDA-BSA or MDA alone were incubated with 1× or 5×2-HOBA. Then 2 μl of each sample was loaded onto HyBond-C membrane, and incubated with the blocking buffer, primary anti-MDA antibody and fluorescent secondary antibody after vigorous washing. The image was captured by the Odyssey system (FIG. 10A) and quantitated by ImageJ software (FIG. 10B).

Chain of anti-MDA antibody / MDA-BSA (P02769 25-607): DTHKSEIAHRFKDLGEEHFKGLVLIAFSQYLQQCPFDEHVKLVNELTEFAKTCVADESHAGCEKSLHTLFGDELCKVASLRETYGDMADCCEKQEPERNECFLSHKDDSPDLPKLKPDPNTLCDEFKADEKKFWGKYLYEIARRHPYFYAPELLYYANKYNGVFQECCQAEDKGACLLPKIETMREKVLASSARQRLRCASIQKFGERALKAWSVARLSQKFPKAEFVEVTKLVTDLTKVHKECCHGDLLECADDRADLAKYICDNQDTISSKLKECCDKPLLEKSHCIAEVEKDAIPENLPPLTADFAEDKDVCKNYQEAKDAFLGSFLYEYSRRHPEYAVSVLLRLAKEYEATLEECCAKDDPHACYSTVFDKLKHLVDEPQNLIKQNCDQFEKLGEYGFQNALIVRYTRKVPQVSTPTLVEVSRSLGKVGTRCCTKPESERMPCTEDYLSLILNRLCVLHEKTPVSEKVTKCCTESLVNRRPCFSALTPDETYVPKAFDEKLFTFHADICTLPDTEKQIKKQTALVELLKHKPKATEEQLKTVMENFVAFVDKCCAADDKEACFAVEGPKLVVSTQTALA

With `NCc1ccccc1O` [2-HOBA, 2-hydroxybenzylamine] the “efferocytosis and cell death in atherosclerotic lesions” value ([1]; Ldlr−/− mice) was “enhanced efferocytosis; also recorded: prevents cell death and increases efferocytosis”, the “reduction of number of TUNEL positive cells in proximal aortic lesions” value ([1]; Ldlr−/− mice, compared to 4-HOBA) was 72.4% and the “reduction of number of TUNEL positive cells in proximal aortic lesions” value ([1]; Ldlr−/− mice, compared to vehicle) was 72% and 72.9%. For the same compound, the “increase of TUNEL positive cells not associated with macrophages” value ([1]; lesions of mice treated with 4-HOBA versus 2-HOBA) was 2.0 fold, the “increase of TUNEL positive cells not associated with macrophages” value ([1]; lesions of mice treated with vehicle versus 2-HOBA) was 1.9 fold and the “cytokine levels (IL-1β, IL-6, TNF-α)” value ([2]; Ldlr−/− mice on chow diet, 1 g/L) was “no impact”. The “serum levels of IL-1β, IL-6, TNF-α, and serum amyloid A” value ([2]; Ldlr−/− mice, western diet 16 weeks, versus 4-HOBA or vehicle) was “decreased; also recorded: reduces”, the “MDA content in LDL” value [3] was “reduced” and the “reduction of MDA adduct content in isolated LDL (ELISA)” value ([3]; compared to 4-HOBA) was 54%. For the same compound, the “reduction of MDA adduct content in isolated LDL (ELISA)” value ([3]; compared to vehicle) was 57%, the “ability of LDL from treated mice to enrich cells with cholesterol” value [4] was “not different” and the “interference with antibody recognition of MDA-albumin adducts” value [5] was “does not interfere; also recorded: does not impact”.
